Results on 22 molecules are retold here after US12503473B2, “Triazolopyrimidine compounds and their use in treating cancer” (Dizal (Jiangsu) Pharmaceutical Co., Ltd., priority 2018, dated 2025).

For experiment [1], the target named is T1, MCT4 (Homo sapiens, UniProt O15427).
T1 sequence (O15427 1-465): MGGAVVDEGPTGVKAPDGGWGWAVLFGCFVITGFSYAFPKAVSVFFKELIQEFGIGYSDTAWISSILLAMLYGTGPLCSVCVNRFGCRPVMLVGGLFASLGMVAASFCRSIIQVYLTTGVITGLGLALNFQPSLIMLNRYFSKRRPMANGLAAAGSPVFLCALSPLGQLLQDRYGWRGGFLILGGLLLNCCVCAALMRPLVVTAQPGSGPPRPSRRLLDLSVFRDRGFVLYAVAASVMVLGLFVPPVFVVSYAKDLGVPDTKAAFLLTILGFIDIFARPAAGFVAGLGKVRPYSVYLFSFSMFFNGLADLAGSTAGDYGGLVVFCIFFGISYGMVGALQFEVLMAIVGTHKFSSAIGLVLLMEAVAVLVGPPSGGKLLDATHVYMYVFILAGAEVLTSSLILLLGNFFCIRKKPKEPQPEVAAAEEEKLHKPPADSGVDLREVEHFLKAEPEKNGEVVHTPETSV
Nature of the experiment: cell-based.
Protocol: Cells were loaded with the pH sensitive dye BCECFAM(Invitrogen #B11150) before being washed to remove excess dye and seeded into the assay plates—directly onto the test compound—at a density of 15,000 cells/well (NCI—H358) or 30,000 cells/well (K562), in 30 μl HBSS with 1 mM [final] […] Assay plates were lidded and spun in a plate centrifuge at 170 g for 1 minute. Plates were then wrapped in foil and incubated in the dark for 1 hour at room temperature.
Following incubation with test compound, 10 μl of 25 mM Sodium-L-Lactate (Sigma #L7022) made up in HBSS with 1 mM [final] […] This addition was performed directly on the FLIPR Tetra platform (Molecular Devices) as part of a real-time kinetic read protocol. […] A percentage change from base-line was calculated for each test well and values normalised to control wells—treated with either DMSO (maximum assay signal) or chemistry related to that described in this patent (minimum assay signal)—before fitting concentration response curves to determine an IC50 value.

Experiment [2] has as its target T1, MCT4. In words: Assay (a): lactate efflux from SK-Br-3 cells (lactate in media, 4 h). The class given is cell-based. The arrangement: a natively glycolytic human breast adenocarcinoma line predominantly expressing MCT4; host or cells: SK-Br-3. Particulars: mean of at least three repeats (Example 32, marked *, two repeats), read-out: MCT4 lactate efflux pIC50 (SKBR3) (converted). The method, then:
Assay plates were lidded and incubated for 4 hours at 37° C. and 5% CO2.

Consider `Cc1nc2nc(C)c(C[C@@H]3CCN(c4ccc(-c5ccc(CN6CCN(C)CC6)nc5)cn4)C3)c(C)n2n1` [Example 4, (R)-2,5,7-trimethyl-6-((1-(6′-((4-methylpiperazin-1-yl)methyl)-[3,3′-bipyridin]-6-yl)pyrrolidin-3-yl)methyl)-[1,2,4]triazolo[1,5-a]pyrimidine], for which the IC50 in experiment [1] was 39.8 nM; in experiment [2], 0.631 nM.

Regarding `Cc1nc2nc(C)c(C[C@@H]3CCN(c4ccc(-c5ccc(CN6CCN(C)CC6)cc5)cn4)C3)c(C)n2n1` [Example 5, (R)-2,5,7-trimethyl-6-((1-(5-(4-((4-methylpiperazin-1-yl)methyl)phenyl)pyridin-2-yl)pyrrolidin-3-yl)methyl)-[1,2,4]triazolo[1,5-a]pyrimidine], the IC50 is 12.6 nM in experiment [1] and 0.501 nM in experiment [2].

For `Cc1nc2nc(C)c(C[C@@H]3CCN(c4ncc(-c5ccc(CN6CCOCC6)cc5)cn4)C3)c(C)n2n1` [Example 6, (R)-4-(4-(2-(3-((2,5,7-trimethyl-[1,2,4]triazolo[1,5-a]pyrimidin-6-yl)methyl)pyrrolidin-1-yl)pyrimidin-5-yl)benzyl)morpholine], the IC50 in experiment [1] was 7.94 nM; in experiment [2], 0.631 nM.

Take `Cc1nc2nc(C)c(C[C@@H]3CCN(c4ccc(-c5ccc(CN6CCN(C)CC6)cc5)nc4)C3)c(C)n2n1` [Example 8, (R)-2,5,7-trimethyl-6-((1-(6-(4-((4-methylpiperazin-1-yl)methyl)phenyl)pyridin-3-yl)pyrrolidin-3-yl)methyl)-[1,2,4]triazolo[1,5-a]pyrimidine]: the IC50 in experiment [1] was 25.1 nM; in experiment [2], 0.631 nM.

With `Cc1nc2nc(C)c(C[C@@H]3CCN(c4cnc(-c5ccc(CN6CCN(C)C[C@@H]6C)cc5)nc4)C3)c(C)n2n1` [Example 10, 6-(((R)-1-(2-(4-(((S)-2,4-dimethylpiperazin-1-yl)methyl)phenyl)pyrimidin-5-yl)pyrrolidin-3-yl)methyl)-2,5,7-trimethyl-[1,2,4]triazolo[1,5-a]pyrimidine], the IC50 was 31.6 nM in experiment [1] and 0.501 nM in experiment [2].

Take `Cc1nc2nc(C)c(C[C@@H]3CCN(c4cnc(-c5ccc(CN6CCOCC6)nc5)nc4)C3)c(C)n2n1` [Example 11, (R)-4-((5-(5-(3-((2,5,7-trimethyl-[1,2,4]triazolo[1,5-a]pyrimidin-6-yl)methyl)pyrrolidin-1-yl)pyrimidin-2-yl)pyridin-2-yl)methyl)morpholine]: the IC50 in experiment [1] is 7.94 nM; in experiment [2], 0.316 nM.

On to `Cc1nc2nc(C)c(C[C@@H]3CCN(c4cnc(-c5ccc(CN6CCN(CCO)CC6)cc5)nc4)C3)c(C)n2n1` [Example 16, (R)-2-(4-(4-(5-(3-((2,5,7-trimethyl-[1,2,4]triazolo[1,5-a]pyrimidin-6-yl)methyl)pyrrolidin-1-yl)pyrimidin-2-yl)benzyl)piperazin-1-yl)ethanol], for which the IC50 in experiment [1] was 31.6 nM; in experiment [2], 0.501 nM.

`Cc1nc2nc(C)c(C[C@@H]3CCN(c4cnc(-c5ccc(CN6CCOCC6)cc5)nc4)C3)c(C)n2n1` [Example 19, (R)-4-(4-(5-(3-((2,5,7-trimethyl-[1,2,4]triazolo[1,5-a]pyrimidin-6-yl)methyl)pyrrolidin-1-yl)pyrimidin-2-yl)benzyl)morpholine]: the IC50 is 7.94 nM in experiment [1] and 0.2 nM in experiment [2].

In the case of `Cc1nc2nc(C)c(C[C@@H]3CCN(c4cnc(-c5ccc(CN6CCN(C)CC6)cc5)nc4)C3)c(C)n2n1` [Example 20, (R)-2,5,7-trimethyl-6-((1-(2-(4-((4-methylpiperazin-1-yl)methyl)phenyl)pyrimidin-5-yl)pyrrolidin-3-yl)methyl)-[1,2,4]triazolo[1,5-a]pyrimidine], the IC50 is 39.8 nM in experiment [1] and 0.501 nM in experiment [2].

Take `Cc1nc2nc(C)c(C[C@@H]3CCN(c4ccc(-c5cnc(CN6CCN(C)CC6)cn5)cc4)C3)c(C)n2n1` [Example 21, (R)-2,5,7-trimethyl-6-((1-(4-(5-((4-methylpiperazin-1-yl)methyl)pyrazin-2-yl)phenyl)pyrrolidin-3-yl)methyl)-[1,2,4]triazolo[1,5-a]pyrimidine]: the IC50 was 20 nM in experiment [1] and 1.26 nM in experiment [2].

As to `Cc1nc2nc(C)c(C[C@@H]3CCN(c4ccc(-c5ccc(CN6CCOCC6)cn5)cc4)C3)c(C)n2n1` [Example 23, (R)-4-((6-(4-(3-((2,5,7-trimethyl-[1,2,4]triazolo[1,5-a]pyrimidin-6-yl)methyl)pyrrolidin-1-yl)phenyl)pyridin-3-yl)methyl)morpholine], the IC50 is 6.31 nM in experiment [1] and 0.398 nM in experiment [2].

As for `Cc1nc2nc(C)c(C[C@@H]3CCN(c4ccc(-c5ccc(CN6CCN(C)CC6)cn5)cc4)C3)c(C)n2n1` [Example 27, (R)-2,5,7-trimethyl-6-((1-(4-(5-((4-methylpiperazin-1-yl)methyl)pyridin-2-yl)phenyl)pyrrolidin-3-yl)methyl)-[1,2,4]triazolo[1,5-a]pyrimidine], the IC50 in experiment [1] was 20 nM; in experiment [2] it was 0.631 nM.

For `COc1cc(CN2CCN(C)CC2)ccc1-c1ncc(N2CC[C@@H](Cc3c(C)nc4nc(C)nn4c3C)C2)nc1C` [Example 31, (R)-6-((1-(5-(2-methoxy-4-((4-methylpiperazin-1-yl)methyl)phenyl)-6-methylpyrazin-2-yl)pyrrolidin-3-yl)methyl)-2,5,7-trimethyl-[1,2,4]triazolo[1,5-a]pyrimidine], the IC50 in experiment [1] was 50.1 nM; in experiment [2] it was 3.16 nM.

As to `Cc1nc2nc(C)c(C[C@@H]3CCN(c4cnc(-c5ccc(CN6CCCCC6)cc5)cn4)C3)c(C)n2n1` [Example 37, 2,5,7-trimethyl-6-[[(3R)-1-[5-[4-(1-piperidylmethyl)phenyl]pyrazin-2-yl]pyrrolidin-3-yl]methyl]-[1,2,4]triazolo[1,5-a]pyrimidine], the IC50 in experiment [1] was 6.31 nM; in experiment [2] it was 0.398 nM.

`CCN1CCN(Cc2ccc(-c3cnc(N4CC[C@@H](Cc5c(C)nc6nc(C)nn6c5C)C4)cn3)cc2)CC1` [Example 38, (R)-6-((1-(5-(4-((4-ethylpiperazin-1-yl)methyl)phenyl)pyrazin-2-yl)pyrrolidin-3-yl)methyl)-2,5,7-trimethyl-[1,2,4]triazolo[1,5-a]pyrimidine]: the IC50 was 31.6 nM in experiment [1] and 3.98 nM in experiment [2].

In the case of `Cc1nc2nc(C)c(C[C@@H]3CCN(c4cnc(-c5ccc(CN6C[C@@H](C)N[C@@H](C)C6)cc5)cn4)C3)c(C)n2n1` [Example 40, 6-(((R)-1-(5-(4-(((3R,5S)-3,5-dimethylpiperazin-1-yl)methyl)phenyl)pyrazin-2-yl)pyrrolidin-3-yl)methyl)-2,5,7-trimethyl-[1,2,4]triazolo[1,5-a]pyrimidine], the IC50 in experiment [1] is 63.1 nM; in experiment [2] it was 1.26 nM.

Take `COc1cc(CN2CCN(C)CC2)ccc1-c1cnc(N2CC[C@@H](Cc3c(C)nc4nc(C)nn4c3C)C2)cn1` [Example 43, (R)-6-((1-(5-(2-methoxy-4-((4-methylpiperazin-1-yl)methyl)phenyl)pyrazin-2-yl)pyrrolidin-3-yl)methyl)-2,5,7-trimethyl-[1,2,4]triazolo[1,5-a]pyrimidine]: the IC50 in experiment [1] is 20 nM; in experiment [2], 0.631 nM.

Regarding `Cc1nc2nc(C)c(C[C@@H]3CCN(c4cnc(-c5ccc(CN6CCOCC6)cn5)c(C)n4)C3)c(C)n2n1` [Example 47, (R)-4-((6-(3-methyl-5-(3-((2,5,7-trimethyl-[1,2,4]triazolo[1,5-a]pyrimidin-6-yl)methyl)pyrrolidin-1-yl)pyrazin-2-yl)pyridin-3-yl)methyl)morpholine], the IC50 is 10 nM in experiment [1] and 2 nM in experiment [2].

Consider `Cc1nc2nc(C)c(C[C@@H]3CCN(c4cnc(-c5ccc(CN6CCN(C)[C@@H](C)C6)cc5)cn4)C3)c(C)n2n1` [Example 48, 6-(((R)-1-(5-(4-(((S)-3,4-dimethylpiperazin-1-yl)methyl)phenyl)pyrazin-2-yl)pyrrolidin-3-yl)methyl)-2,5,7-trimethyl-[1,2,4]triazolo[1,5-a]pyrimidine], for which the results for the IC50 in experiment [1] and in experiment [2] were 10 nM and 1.58 nM, respectively.

Turning to `Cc1nc2nc(C)c(C[C@@H]3CCN(c4cnc(-c5ccc(CN6CCOCC6)nc5)cn4)C3)c(C)n2n1` [Example 49, (R)-4-((5-(5-(3-((2,5,7-trimethyl-[1,2,4]triazolo[1,5-a]pyrimidin-6-yl)methyl)pyrrolidin-1-yl)pyrazin-2-yl)pyridin-2-yl)methyl)morpholine], the values for the IC50 in experiment [1] and in experiment [2] were 7.94 nM and 0.631 nM, respectively.

As for `Cc1nc2nc(C)c(C[C@@H]3CCN(c4cnc(-c5ccc(CN6CCN(S(C)(=O)=O)CC6)cc5)cn4)C3)c(C)n2n1` [Example 52, 2,5,7-trimethyl-6-({(3R)-1-[5-(4-{[4-(methylsulfonyl)piperazin-1-yl]methyl}phenyl)pyrazin-2-yl]pyrrolidin-3-yl}methyl)[1,2,4]triazolo[1,5-a]pyrimidine], the IC50 is 10 nM in experiment [1] and 0.2 nM in experiment [2].

For `Cc1nc2nc(C)c(C[C@@H]3CCN(c4cnc(-c5ccc(CN6CCN(CC(=O)N(C)C)CC6)cc5)cn4)C3)c(C)n2n1` [Example 53, (R)—N,N-dimethyl-2-(4-(4-(5-(3-((2,5,7-trimethyl-[1,2,4]triazolo[1,5-a]pyrimidin-6-yl)methyl)pyrrolidin-1-yl)pyrazin-2-yl)benzyl)piperazin-1-yl)acetamide], the IC50 is 25.1 nM in experiment [1] and 0.631 nM in experiment [2].
